These results are taken from EPA's ToxValDB 9.5 (doi:10.2903/j.efsa.2018.5126).

One data set has as its system Colinus virginianus. The conditions noted are these: chronic.
In another data set the test system is Anas platyrhynchos. The conditions noted are these: acute; oral; unspecified; mortality.
The test system of the next data set is Rattus norvegicus. The conditions noted are these: for LD50: acute, mortality.
Another data set deals with Landoltia sp. The conditions noted are these: chronic/long-term; duration: 7 days; frond number.
In another data set the test system is Tagia sp. The conditions noted are these: chronic/long-term; duration: 56 days; growth.
A further data set deals with Oryctolagus sp. The conditions noted are these: reproduction developmental; body weight.
The test system of a further data set is Bibionidae. To be noted: chronic/long-term; duration: 28 days.
Another data set relates to Navicula pelliculosa. The conditions noted are these: acute; duration: 72 hours; growth.
Another data set concerns Apis mellifera. The conditions noted are these: acute, mortality.
In another data set the test system is Neomysis kadiakensis. To be noted: chronic/long-term; duration: 28 days; reproduction.
In the next data set the test system is Oncorhynchus mykiss. The conditions noted are these: acute; duration: 96 hours; mortality.
The next data set has as its system Aphidius rhopalosiphi. Briefly: LR50; higher = less toxic. The conditions noted are these: acute; mortality.

Values after ≈ are worked out from the molar mass of the structure shown.

For the molecule `N#Cc1c(O)c(Cl)c(Cl)c(C#N)c1Cl` [4-Hydroxy-2,5,6-trichloroisophthalonitrile], the NOAEL (in general, the highest dose or exposure tested at which no adverse effect was seen) with Colinus virginianus is 10.1 mg/kg-day; in the data set with Rattus norvegicus (reproduction developmental, body weight), 1.5 mg/kg-day. Also, the LD50 with Anas platyrhynchos is 158 mg/kg-day; in the data set on Rattus norvegicus it was 242 mg/kg-day.
Consider `N#Cc1c(Cl)c(Cl)c(Cl)c(C#N)c1Cl` [Chlorothalonil], for which the NOEC with Landoltia sp. was determined as 0.187 mg/L; the NOEC (chronic) was found to be 0.003 mg/L; the NOEC with Tagia sp. turned out to be 0.75 mg/kg; the NOEC in the data set with Bibionidae is 0.04 mg/L; the NOEC with Navicula pelliculosa amounted to 0.013 mg/L; the NOEC with Neomysis kadiakensis is 0.0004 mg/L. For the same molecule, the 50% lethal concentration (LC50) (usually the concentration lethal to half of the exposed cells or organisms) (acute, duration: 96 hours, mortality) was found to be 0.0107 µg/mL (≈ 0.0402 µM) and the LC50 in the data set with Oncorhynchus mykiss stood at 0.017 µg/mL (≈ 0.0639 µM). Besides, the no-observed-adverse-effect level (NOAEL) in the data set on Oryctolagus sp. was less than 5 mg/kg-day; with Rattus norvegicus (chronic, duration: 26 months, organ weight) it was 1.8 mg/kg-day; in the data set on Rattus norvegicus (reproduction developmental, histopathology: nonneoplastic) it was less than 22.6 mg/kg-day; in the data set with Rattus norvegicus (subchronic, duration: 90 days, oral, histopathology: nonneoplastic), 1.5 mg/kg-day. The LD50 with Anas platyrhynchos was more than 2000 mg/kg-day; in the data set with Apis mellifera (dermal), more than 40 µg/piece; in the data set with Apis mellifera (oral, unspecified) it was more than 40 µg/piece; in the data set with Rattus norvegicus, more than 5000 mg/kg-day. This molecule also gave an LR50 in the data set on Aphidius rhopalosiphi of more than 262 g/ha.
